Measurements published in US20150197550A1 (UNIVERSITY OF ULSTER, priority 2012, published 2015).
Square brackets hold non-standard residues; d marks the D form. Peptide text beside a SMILES is read from it. Abu = CC[C@H](N)C(=O)O; Aib = CC(C)(N)C(=O)O

Experiment: Stability on incubation with mouse plasma for 8 h (RP-HPLC peak height)
Format: in vitro ADME
Settings: mouse plasma, 8 h, peak height vs time = 0 h; read-out: Percentage of degradation after 8h
Protocol: The samples were then separated on RP-HPLC and the peak height compared to the value at time=0 hours.
With `CC[C@H](C)[C@H](NC(=O)[C@H](Cc1ccccc1)NC(=O)[C@@H](NC(=O)CNC(=O)[C@H](CCC(=O)O)NC(=O)[C@@H](C)NC(=O)[C@@H](N)Cc1c[nH]cn1)[C@@H](C)O)C(=O)N[C@@H](CO)C(=O)N[C@@H](CC(=O)O)C(=O)N[C@@H](Cc1ccc(O)cc1)C(=O)N[C@@H](CO)C(=O)N[C@@H](CCCCN)C(=O)N[C@@H](Cc1ccc(O)cc1)C(=O)N[C@@H](CCSC)C(=O)N[C@@H](CC(=O)O)C(=O)N[C@@H](CC(N)=O)C(=O)N[C@@H](CCCNC(=N)N)C(=O)N[C@@H](CCCNC(=N)N)C(=O)N[C@@H](C)C(=O)N[C@@H](CCCCN)C(=O)N[C@@H](CC(=O)O)C(=O)N[C@@H](Cc1ccccc1)C(=O)N[C@H](C(=O)N[C@@H](CCC(N)=O)C(=O)N[C@@H](Cc1c[nH]c2ccccc12)C(=O)N[C@@H](CC(C)C)C(=O)N[C@@H](CCSC)C(=O)N[C@@H](CC(N)=O)C(=O)N[C@H](C(=O)O)[C@@H](C)O)C(C)C` [(D-A^2 I^7) dogfish glucagon, (D-A^2I^7) dogfish glucagon] (H-H[dA]EGTFISDYSKYMDNRRAKDFVQWLMNT-OH; N-terminus and C-terminus assumed) the metabolised at 8 h was 33%.

Same assay, conditions: mouse, plasma
Molecule `CSCC[C@H](NC(=O)[C@H](Cc1ccc(O)cc1)NC(=O)[C@H](CCCCN)NC(=O)[C@H](CO)NC(=O)[C@H](Cc1ccc(O)cc1)NC(=O)[C@H](CC(=O)O)NC(=O)[C@H](CO)NC(=O)[C@@H](NC(=O)[C@H](Cc1ccccc1)NC(=O)[C@@H](NC(=O)CNC(=O)[C@H](CCC(=O)O)NC(=O)C(C)(C)NC(=O)[C@@H](N)Cc1c[nH]cn1)[C@@H](C)O)[C@@H](C)O)C(=O)N[C@@H](CC(=O)O)C(=O)N[C@@H](CC(N)=O)C(=O)N[C@@H](CCCNC(=N)N)C(=O)N[C@@H](CCCNC(=N)N)C(=O)N[C@@H](C)C(=O)N[C@@H](CCCCN)C(=O)N[C@@H](CC(=O)O)C(=O)N[C@@H](Cc1ccccc1)C(=O)N[C@H](C(=O)N[C@@H](CCC(N)=O)C(=O)N[C@@H](Cc1c[nH]c2ccccc12)C(=O)N[C@@H](CC(C)C)C(=O)N[C@@H](CCSC)C(=O)N[C@@H](CC(N)=O)C(=O)N[C@H](C(=O)O)[C@@H](C)O)C(C)C` [(Aib^2) dogfish glucagon] (H-H[Aib]EGTFTSDYSKYMDNRRAKDFVQWLMNT-OH; N-terminus and C-terminus assumed) has a metabolised at 8 h of 47.4%.
For `CSCC[C@H](NC(=O)[C@H](C)NC(=O)[C@H](CCCCN)NC(=O)[C@H](CO)NC(=O)[C@H](Cc1ccc(O)cc1)NC(=O)[C@H](CC(=O)O)NC(=O)[C@H](CO)NC(=O)[C@@H](NC(=O)[C@H](Cc1ccccc1)NC(=O)[C@@H](NC(=O)CNC(=O)[C@H](CCC(=O)O)NC(=O)[C@@H](C)NC(=O)[C@@H](N)Cc1c[nH]cn1)[C@@H](C)O)[C@@H](C)O)C(=O)N[C@@H](CC(=O)O)C(=O)N[C@@H](CC(N)=O)C(=O)N[C@@H](CCCNC(=N)N)C(=O)N[C@@H](CCCNC(=N)N)C(=O)N[C@@H](C)C(=O)N[C@@H](CCCCN)C(=O)N[C@@H](CC(=O)O)C(=O)N[C@@H](Cc1ccccc1)C(=O)N[C@H](C(=O)N[C@@H](CCC(N)=O)C(=O)N[C@@H](Cc1c[nH]c2ccccc12)C(=O)N[C@@H](CC(C)C)C(=O)N[C@@H](CCSC)C(=O)N[C@@H](CC(N)=O)C(=O)N[C@H](C(=O)O)[C@@H](C)O)C(C)C` [(D-A^2 A^13) dogfish glucagon, (D-A^2A^13) dogfish glucagon] (H-H[dA]EGTFTSDYSKAMDNRRAKDFVQWLMNT-OH; N-terminus and C-terminus assumed), the metabolised at 8 h was 33.9%.
`CSCC[C@H](NC(=O)[C@H](Cc1ccc(O)cc1)NC(=O)[C@H](CCCCN)NC(=O)[C@H](CO)NC(=O)[C@H](Cc1ccc(O)cc1)NC(=O)[C@H](CC(=O)O)NC(=O)[C@H](CO)NC(=O)[C@@H](NC(=O)[C@H](Cc1ccccc1)NC(=O)[C@@H](NC(=O)CNC(=O)[C@H](CCC(=O)O)NC(=O)[C@@H](C)NC(=O)[C@@H](N)Cc1c[nH]cn1)[C@@H](C)O)[C@@H](C)O)C(=O)N[C@@H](CC(=O)O)C(=O)N[C@@H](CC(N)=O)C(=O)N[C@@H](CCCNC(=N)N)C(=O)N[C@@H](CCCNC(=N)N)C(=O)N[C@@H](C)C(=O)N[C@@H](CCCCN)C(=O)N[C@H](CC(=O)O)C(=O)N[C@@H](Cc1ccccc1)C(=O)N[C@H](C(=O)N[C@@H](CCC(N)=O)C(=O)N[C@@H](Cc1c[nH]c2ccccc12)C(=O)N[C@@H](CC(C)C)C(=O)N[C@@H](CCSC)C(=O)N[C@@H](CC(N)=O)C(=O)N[C@H](C(=O)O)[C@@H](C)O)C(C)C` [(D-A^2 D-D^21) dogfish glucagon, (D-A^2D-D^21) dogfish glucagon] (H-H[dA]EGTFTSDYSKYMDNRRAK[dD]FVQWLMNT-OH; N-terminus and C-terminus assumed) showed a metabolised at 8 h of 31.7%.
Molecule `CC[C@H](C)[C@H](NC(=O)[C@H](CO)NC(=O)[C@H](Cc1ccc(O)cc1)NC(=O)[C@H](CC(=O)O)NC(=O)[C@H](CO)NC(=O)[C@@H](NC(=O)[C@H](Cc1ccccc1)NC(=O)[C@@H](NC(=O)CNC(=O)[C@H](CCC(=O)O)NC(=O)[C@@H](C)NC(=O)[C@@H](N)Cc1c[nH]cn1)[C@@H](C)O)[C@@H](C)O)C(=O)N[C@@H](Cc1ccc(O)cc1)C(=O)N[C@@H](CCSC)C(=O)N[C@@H](CC(=O)O)C(=O)N[C@@H](CC(N)=O)C(=O)N[C@@H](CCCNC(=N)N)C(=O)N[C@@H](CCCNC(=N)N)C(=O)N[C@@H](C)C(=O)N[C@@H](CCCCN)C(=O)N[C@@H](CC(=O)O)C(=O)N[C@@H](Cc1ccccc1)C(=O)N[C@H](C(=O)N[C@@H](CCC(N)=O)C(=O)N[C@@H](Cc1c[nH]c2ccccc12)C(=O)N[C@@H](CC(C)C)C(=O)N[C@@H](CCSC)C(=O)N[C@@H](CC(N)=O)C(=O)N[C@H](C(=O)O)[C@@H](C)O)C(C)C` [(D-A^2 I^12) dogfish glucagon, (D-A^2I^12) dogfish glucagon] (H-H[dA]EGTFTSDYSIYMDNRRAKDFVQWLMNT-OH; N-terminus and C-terminus assumed) has a metabolised at 8 h of 20.7%.
Molecule `CSCC[C@H](NC(=O)[C@H](Cc1ccc(O)cc1)NC(=O)[C@H](CCCCN)NC(=O)[C@H](CO)NC(=O)[C@H](Cc1ccc(O)cc1)NC(=O)[C@H](CC(=O)O)NC(=O)[C@H](CO)NC(=O)[C@@H](NC(=O)[C@H](Cc1ccccc1)NC(=O)[C@@H](NC(=O)CNC(=O)[C@H](CCC(=O)O)NC(=O)[C@H](CO)NC(=O)[C@@H](N)Cc1c[nH]cn1)[C@@H](C)O)[C@@H](C)O)C(=O)N[C@@H](CC(=O)O)C(=O)N[C@@H](CC(N)=O)C(=O)N[C@@H](CCCNC(=N)N)C(=O)N[C@@H](CCCNC(=N)N)C(=O)N[C@@H](C)C(=O)N[C@@H](CCCCN)C(=O)N[C@@H](CC(=O)O)C(=O)N[C@@H](Cc1ccccc1)C(=O)N[C@H](C(=O)N[C@@H](CCC(N)=O)C(=O)N[C@@H](Cc1c[nH]c2ccccc12)C(=O)N[C@@H](CC(C)C)C(=O)N[C@@H](CCSC)C(=O)N[C@@H](CC(N)=O)C(=O)N[C@H](C(=O)O)[C@@H](C)O)C(C)C` [dogfish glucagon, Dogfish glucagon (1-29)] (H-HSEGTFTSDYSKYMDNRRAKDFVQWLMNT-OH; N-terminus and C-terminus assumed) has a metabolised at 8 h of 38.8%.
In the case of `CC[C@H](NC(=O)[C@@H](N)Cc1c[nH]cn1)C(=O)N[C@@H](CCC(=O)O)C(=O)NCC(=O)N[C@H](C(=O)N[C@@H](Cc1ccccc1)C(=O)N[C@H](C(=O)N[C@@H](CO)C(=O)N[C@@H](CC(=O)O)C(=O)N[C@@H](Cc1ccc(O)cc1)C(=O)N[C@@H](CO)C(=O)N[C@@H](CCCCN)C(=O)N[C@@H](Cc1ccc(O)cc1)C(=O)N[C@@H](CCSC)C(=O)N[C@@H](CC(=O)O)C(=O)N[C@@H](CC(N)=O)C(=O)N[C@@H](CCCNC(=N)N)C(=O)N[C@@H](CCCNC(=N)N)C(=O)N[C@@H](C)C(=O)N[C@@H](CCCCN)C(=O)N[C@@H](CC(=O)O)C(=O)N[C@@H](Cc1ccccc1)C(=O)N[C@H](C(=O)N[C@@H](CCC(N)=O)C(=O)N[C@@H](Cc1c[nH]c2ccccc12)C(=O)N[C@@H](CC(C)C)C(=O)N[C@@H](CCSC)C(=O)N[C@@H](CC(N)=O)C(=O)N[C@H](C(=O)O)[C@@H](C)O)C(C)C)[C@@H](C)O)[C@@H](C)O` [(Abu^2) dogfish glucagon] (H-H[Abu]EGTFTSDYSKYMDNRRAKDFVQWLMNT-OH; N-terminus and C-terminus assumed), the metabolised at 8 h is reported as 58.4%.
In the case of `CSCC[C@H](NC(=O)[C@H](Cc1ccc(O)cc1)NC(=O)[C@H](CCCCN)NC(=O)[C@H](CO)NC(=O)[C@H](Cc1ccc(O)cc1)NC(=O)[C@H](CC(=O)O)NC(=O)[C@H](CO)NC(=O)[C@@H](NC(=O)[C@H](Cc1ccccc1)NC(=O)[C@@H](NC(=O)CNC(=O)[C@H](CCC(=O)O)NC(=O)[C@@H](C)NC(=O)[C@@H](N)Cc1c[nH]cn1)[C@@H](C)O)[C@@H](C)O)C(=O)N[C@@H](CC(=O)O)C(=O)N[C@@H](CC(N)=O)C(=O)N[C@@H](CCCNC(=N)N)C(=O)N[C@@H](CCCNC(=N)N)C(=O)N[C@@H](C)C(=O)N[C@@H](CCCCN)C(=O)N[C@@H](CC(=O)O)C(=O)N[C@@H](Cc1ccccc1)C(=O)N[C@H](C(=O)N[C@@H](CCC(N)=O)C(=O)N[C@@H](Cc1c[nH]c2ccccc12)C(=O)N[C@@H](CC(C)C)C(=O)N[C@@H](CCSC)C(=O)N[C@@H](CC(N)=O)C(=O)N[C@H](C(=O)O)[C@@H](C)O)C(C)C` [(D-Ala^2) dogfish glucagon, (D-A^2) dogfish glucagon] (H-H[dA]EGTFTSDYSKYMDNRRAKDFVQWLMNT-OH; N-terminus and C-terminus assumed), the metabolised at 8 h is reported as 40.1%.
For `CSCC[C@H](NC(=O)[C@H](CC(C)C)NC(=O)[C@H](Cc1c[nH]c2ccccc12)NC(=O)[C@H](CCC(N)=O)NC(=O)[C@@H](NC(=O)[C@H](Cc1ccccc1)NC(=O)[C@H](CC(=O)O)NC(=O)[C@H](CCCCN)NC(=O)[C@H](C)NC(=O)[C@H](CCCNC(=N)N)NC(=O)[C@H](CCCNC(=N)N)NC(=O)[C@H](CC(N)=O)NC(=O)[C@H](CC(=O)O)NC(=O)[C@H](CCSC)NC(=O)[C@@H](Cc1ccc(O)cc1)NC(=O)[C@H](CCCCN)NC(=O)[C@H](CO)NC(=O)[C@H](Cc1ccc(O)cc1)NC(=O)[C@H](CC(=O)O)NC(=O)[C@H](CO)NC(=O)[C@@H](NC(=O)[C@H](Cc1ccccc1)NC(=O)[C@@H](NC(=O)CNC(=O)[C@H](CCC(=O)O)NC(=O)[C@@H](C)NC(=O)[C@@H](N)Cc1c[nH]cn1)[C@@H](C)O)[C@@H](C)O)C(C)C)C(=O)N[C@@H](CC(N)=O)C(=O)N[C@H](C(=O)O)[C@@H](C)O` [(D-A^2 D-Y^13) dogfish glucagon, (D-A^2D-Y^13) dogfish glucagon] (H-H[dA]EGTFTSDYSK[dY]MDNRRAKDFVQWLMNT-OH; N-terminus and C-terminus assumed), the metabolised at 8 h was 26.5%.
